Experiments:
[1] = tested on: ER stress markers BIP, CHOP, p-eIF-2α; experiment: ER stress markers in the corpus callosum of cuprizone treated mice expressing IFN-γ; type: in vivo
Protocol: Repression of remyelination by IFN-γ is associated with ER stress. […] To determine whether IFN-γ interferes with endoplasmic reticulum (ER) function in remyelinating oligodendrocytes, the expression of ER stress markers was monitored in the corpus callosum of mice expressing IFN-γ. The study was performed using the transgenic mice described in Example 1.
The level of mRNA encoding ER stress associated genes binding immunoglobulin protein/78 KDa glucose regulated protein (BIP/GRP78) and the CAATT enhancer-binding protein homologous protein/growth and DNA damage protein 153 (CHOP/GADD153), was determined using real time PCR, as described in Example 1 in the corpus callosum of the cuprizone treated mice of Example 1. The probes, sense and antisense primers that were used were: […]
The level of phosphorylated eIF-2α, which inhibits nucleotide exchange on the eIF-2 complex and attenuates most protein synthesis, was analyzed by Western blot, and the expression was colocalized by immunostaining CC1 antibodies as described above. Western blot analysis was performed as follows. The corpus callosum from 3 mice was rinsed in ice cold phosphate-buffered saline (PBS) and pooled, and immediately homogenized in 5 volumes of Triton X-100 buffer (20 mM HEPES pH 7.5, 150 mM NaCl, 1% Triton X-100, 10% glycerol, 1 mM EDTA, 10 mM tetrasodium pyrophosphate, 100 mM NaF, 17.5 mM β-glycerophosphate, 10 mM phenylmethylsulfonyl fluoride, 15 μg/ml aprotonin, and 6 μg/ml pepstatin A) using a motorized homogenizer. After incubation on ice for 15 min, the extracts were cleared by centrifugation at 14,000 rpm twice for 30 min each. The protein content of each extract was determined by protein assay (Bio-Rad). The extracts (40 μg) were separated by sodium dodecyl sulfate-polyacrylamide gel electrophoresis and transferred to nitrocellulose. […] The following primary antibodies were used: anti-eIF-2α (1:500; Santa Cruz, Santa Cruz, Calif.), anti-p-eIF-2α (1:1000, Cell signaling Technology), anti-CHOP (1:500; Santa Cruz) and anti-actin (1:1000; Sigma, St Louis, Mo.).

[2] = tested on: Hippocampal organotypic cultures; experiment: Hippocampal organotypic cultures (HOC), in vitro model of myelination, MBP Western blot; type: cell-based; conditions: 7 days of 100 U/ml IFN-γ exposure
Protocol: Our hypothesis is that the integrated stress response has the potential to protect oligodendrocytes from the harmful effects of the inflammatory response in patients with multiple sclerosis (MS). […] To test whether agents that prolong eIF2α phosphorylation might provide protection to oligodendrocytes against detrimental inflammatory factors, the effect of Salubrinol (Sal) in the presence of the immune cytokine IFN-γ was tested in an in vitro model of myelination.
HOCs, were prepared and maintained as described previously (Kunkler and Kraig (1997) J Cereb Blood Flow Metab. 17:26-43), and were maintained in vitro for 7 days before use. SAL at various concentrations was combined with 100 U/ml IFN-γ and added to the HOC cultures for 7 days. […] After 7 days of 100 U/ml IFN-γ exposure, the levels of MBP decreased approximately 80% in the HOCs (FIG. 29).

[3] = tested on: cultured rat oligodendrocytes; experiment: IFN-γ treatment of cultured rat oligodendrocytes (apoptosis, ER stress markers); type: cell-based
Protocol: To test whether apoptosis of oligodendrocytes that is induced by INF-γ affects ER stress, the effect on the morphology, the degree of apoptosis and the expression of ER markers was studied in a culture of oligodendrocyte precursor cells (OPC). Oligodendrocyte progenitors were cultured from neonatal rat brains (Baerwald, et al. (1998) J. Neurosci. Res. 52: 230-239). A mixed glial culture was grown in flasks in medium containing 10% fetal bovine serum (FBS), and when the astrocyte layer became confluent (10-14 days), oligodendrocyte progenitors were separated from astrocytes and microglia using an orbital shaker. Cells, greater than 95% of which were A2B5 positive, GFAP negative and CD11b negative, were cultured in 0.5% FBS containing medium, which also contained PDGF (10 ng/ml) and FGF (5 ng/ml) (both from R&D Systems, Minneapolis, Minn.). Then cells were switched to 0.5% FBS medium without PDGF and FGF for differentiation. After 5 days in the differentiating medium, approximately 40% of cells were positive for myelin protein 2′3′-cyclic nucleotide 3′-phosphodiestaerase (CNP). 70 U/ml recombinant rat IFN-γ (Calbiochem, La Jolla, Calif.) was added to the cells that had been allowed to differentiation for 5 days. After 5 d in the differentiating medium, about 40% of the cells were CNP positive. 70 U/ml of recombinant rat INF-γ (Calbiochem) was added to the cells that had been allowed to differentiate for 5d. To examine the oligodendroglial response to general ER stress-inducing agents, progenitor cells that had been cultured in differentiation medium for 5 or 7 days were treated with 2 μg/ml of tunicamycin (Sigma Aldrich) for 6 hours.
The level of apoptosis of the OPC cells was determined by double staining CNP (1:200; Stemberger Monoclonals, Lutherville, Md.) and TUNEL using the ApopTag Kit (Serologicals Corp., Norcross, […].) and following the manufacturer's instructions. Apoptosis was also evaluated by measuring the activity of caspase-3 in oligodendrocyte lysates using the Fluorimetric Caspase 3 Assay Kit (Sigma, St. Louis, Mo.), according to the manufacturer's instructions.
To determine whether INF-γ affects ER function, the RNA expression of ER markers binding immunoglobulin protein (BIP), CAAT enhancer binding protein homologous protein (CHOP), and caspase 12 was determined using real time PCR. RNA was isolated from cultured cells and mice brain using Trizol reagent (Invitrogen, Carlsbad, Calif.) and treated with DNAaseI (Invitrogen) to eliminate genomic DNA. Reverse transcription was performed using Superscript First Strand Synthesis System for RT-PCR kit (Invitrogen). Real-time PCR was performed with iQ Supermix (Bio-Rad, Hercules, Calif.) on a Bio-Rad iQ real-time PCR detection system (Bio-Rad). The following primers and probes (Integrated DNA Technologies Inc., Coralville, Iowa) for real-time PCR were used: mouse CHOP sense primer […] (SEQ ID NO: 34); mouse CHOP antisense primer […] (SEQ ID NO: 35); CHOP probe […] (SEQ ID NO: 36); mouse BIP sense primer […] (SEQ ID NO: 31); mouse BIP antisense primer […] (SEQ ID NO: 32); BIP probe […] (SEQ ID NO: 33); mouse caspase 12 sense primer […] (SEQ ID NO: 37); and mouse caspase antisense primer […] (SEQ ID NO: 38).
To determine the effect of INF-γ on the level of phosphorylated eIF-2α and caspase 12 proteins, western blot analysis was performed using the following antibodies anti-eIF-2α (1:500; Santa Cruz), anti-p-eIF-2α (1:1000, Cell signaling Technology), anti-caspase-12 (1:500; Santa Cruz) and anti-actin (1:1000; Sigma, St Louis, Mo.), and according to the following protocol. […]

[4] = corpus callosum of DOX− mice, Western blot

interferon-γ [IFN-γ]
level of CHOP protein [1, 4]: approximately 1.7 fold
level of phosphorylated eIF-2α (p-eIF-2α) [1, 4]: approximately 1.8 fold
level of mRNA for BIP and CHOP ([1]; corpus callosum, DOX− compared to control DOX+, real time PCR): approximately 2 fold
decrease of the levels of MBP [2]: approximately 80%
caspase-3 activity in the cell lysates ([3]; 70 U/ml IFN-γ): markedly increased
apoptosis, TUNEL and CNP double labeling ([3]; 70 U/ml IFN-γ for 48 h): induced apoptosis in a significant number of oligodendrocytes
cell morphology ([3]; 70 U/ml IFN-γ for 48 h, cells differentiated 5 days): abnormal morphological changes
level of phosphorylated eIF-2α (p-eIF-2α) ([3]; 70 U/ml IFN-γ, Western blot): significantly elevated
caspase-12 expression ([3]; 70 U/ml IFN-γ, real-time PCR): induction of caspase-12 was observed
levels of mRNA encoding BIP/GRP78 and CHOP/GADD153 ([3]; 70 U/ml IFN-γ, real-time PCR): 2 to 3 times
level of the active fragment of caspase-12 ([3]; after 48 h of IFN-γ treatment, Western blot): strongly elevated

— US8309790B2, “Animal models for demyelination disorders” (University of Chicago, priority 2005, dated 2012)
